Reference: US20140005163A1 (NOVARTIS AG, priority 2010, published 2014)

Columns and labels:
[1] = biological target: T1, PI3K alpha (Homo sapiens, UniProt P42336); assay: PI3K alpha kinase assay (Kinase-Glo luminescence); assay type: biochemical
T1 construct: p85(iSH2) fusion partner (see partner chain) (N); His tag (C); made in house; host or cells: baculovirus; Tn5 (Trichoplusia ni) or TiniPro insect cells
Method in brief: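 Luminescent ATP-depletion assay (Kinase-Glo) with 10 nM PI3Kα and 10 μg/mL phosphatidylinositol as lipid substrate at 1 μM ATP. Incubation lasts 60 min at room temperature.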

[2] = biological target: T2, PI3K delta (Homo sapiens, UniProt O00329); assay: PI3K delta kinase assay (Kinase-Glo luminescence); assay type: biochemical
T2 construct: for the full-length p110-d subunit are generated and fused by overlapping PCR; p85(iSH2) fusion partner (see partner chain) (N); His tag (C); made in house; host or cells: baculovirus; Tn5 (Trichoplusia ni) or TiniPro insect cells
T2 sequence (O00329 with tags, fused parts or gaps limits assumed): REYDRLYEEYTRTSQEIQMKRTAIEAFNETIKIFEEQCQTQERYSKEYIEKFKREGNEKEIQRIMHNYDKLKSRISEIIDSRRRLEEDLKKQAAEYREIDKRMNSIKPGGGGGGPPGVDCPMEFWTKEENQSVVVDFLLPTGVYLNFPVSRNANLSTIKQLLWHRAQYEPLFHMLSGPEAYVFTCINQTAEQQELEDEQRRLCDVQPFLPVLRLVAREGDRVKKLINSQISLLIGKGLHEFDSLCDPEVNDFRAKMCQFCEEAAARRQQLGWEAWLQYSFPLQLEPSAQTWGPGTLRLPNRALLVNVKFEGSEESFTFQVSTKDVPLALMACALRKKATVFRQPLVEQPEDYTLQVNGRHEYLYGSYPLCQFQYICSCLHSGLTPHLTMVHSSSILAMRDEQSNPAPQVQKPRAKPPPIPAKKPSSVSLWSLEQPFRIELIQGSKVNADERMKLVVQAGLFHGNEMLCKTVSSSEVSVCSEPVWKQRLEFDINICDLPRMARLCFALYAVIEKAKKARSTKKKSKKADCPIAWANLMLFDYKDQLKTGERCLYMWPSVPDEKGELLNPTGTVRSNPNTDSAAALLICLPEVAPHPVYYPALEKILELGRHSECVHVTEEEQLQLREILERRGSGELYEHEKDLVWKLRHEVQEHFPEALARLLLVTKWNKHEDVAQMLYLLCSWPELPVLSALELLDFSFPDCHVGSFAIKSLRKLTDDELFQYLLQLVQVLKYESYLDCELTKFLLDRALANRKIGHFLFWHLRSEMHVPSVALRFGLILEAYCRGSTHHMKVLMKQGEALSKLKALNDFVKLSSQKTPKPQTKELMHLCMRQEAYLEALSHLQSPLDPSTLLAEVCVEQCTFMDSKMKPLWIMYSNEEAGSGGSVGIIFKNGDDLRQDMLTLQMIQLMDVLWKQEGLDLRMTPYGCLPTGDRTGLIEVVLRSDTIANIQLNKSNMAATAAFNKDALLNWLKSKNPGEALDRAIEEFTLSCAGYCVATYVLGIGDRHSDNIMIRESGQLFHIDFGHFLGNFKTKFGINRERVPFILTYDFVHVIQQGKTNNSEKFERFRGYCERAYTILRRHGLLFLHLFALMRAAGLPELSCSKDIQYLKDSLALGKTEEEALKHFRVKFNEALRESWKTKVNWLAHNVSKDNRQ
Method in brief: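 Inhibition is derived from luminescent detection of unconsumed ATP. The reaction runs for one hour at ambient temperature and contains the δ isoform fusion protein, phosphatidylinositol substrate and low (1 μM) ATP. Eight compound concentrations are tested in single, and a 4-parameter logistic model is used to calculate IC50.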

[3] = test system: PKB Ser473 phosphorylation in Rat1-myr-HA-p110 alpha cells; assay: Reverse protein array assay, PKB Ser473 phosphorylation in Rat1-myr-p110 alpha cells; assay type: cell-based; settings: 0.5 h, pAkt Ser473, 30 minutes compound incubation, read-out: p-PKB IC50
Method in brief: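 Rat1 cells expressing myristoylated HA-tagged p110 alpha, beta or delta were plated for at least 20 h, then exposed to 8-step serial compound dilutions (0.2% DMSO final) for 30 min at 37 °C. Lysates were spotted at four dilutions on protein microarrays, and relative fluorescence intensity of phospho-Ser473 PKB was calculated.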

T1 sequence (P42336 with tags, fused parts or gaps limits assumed): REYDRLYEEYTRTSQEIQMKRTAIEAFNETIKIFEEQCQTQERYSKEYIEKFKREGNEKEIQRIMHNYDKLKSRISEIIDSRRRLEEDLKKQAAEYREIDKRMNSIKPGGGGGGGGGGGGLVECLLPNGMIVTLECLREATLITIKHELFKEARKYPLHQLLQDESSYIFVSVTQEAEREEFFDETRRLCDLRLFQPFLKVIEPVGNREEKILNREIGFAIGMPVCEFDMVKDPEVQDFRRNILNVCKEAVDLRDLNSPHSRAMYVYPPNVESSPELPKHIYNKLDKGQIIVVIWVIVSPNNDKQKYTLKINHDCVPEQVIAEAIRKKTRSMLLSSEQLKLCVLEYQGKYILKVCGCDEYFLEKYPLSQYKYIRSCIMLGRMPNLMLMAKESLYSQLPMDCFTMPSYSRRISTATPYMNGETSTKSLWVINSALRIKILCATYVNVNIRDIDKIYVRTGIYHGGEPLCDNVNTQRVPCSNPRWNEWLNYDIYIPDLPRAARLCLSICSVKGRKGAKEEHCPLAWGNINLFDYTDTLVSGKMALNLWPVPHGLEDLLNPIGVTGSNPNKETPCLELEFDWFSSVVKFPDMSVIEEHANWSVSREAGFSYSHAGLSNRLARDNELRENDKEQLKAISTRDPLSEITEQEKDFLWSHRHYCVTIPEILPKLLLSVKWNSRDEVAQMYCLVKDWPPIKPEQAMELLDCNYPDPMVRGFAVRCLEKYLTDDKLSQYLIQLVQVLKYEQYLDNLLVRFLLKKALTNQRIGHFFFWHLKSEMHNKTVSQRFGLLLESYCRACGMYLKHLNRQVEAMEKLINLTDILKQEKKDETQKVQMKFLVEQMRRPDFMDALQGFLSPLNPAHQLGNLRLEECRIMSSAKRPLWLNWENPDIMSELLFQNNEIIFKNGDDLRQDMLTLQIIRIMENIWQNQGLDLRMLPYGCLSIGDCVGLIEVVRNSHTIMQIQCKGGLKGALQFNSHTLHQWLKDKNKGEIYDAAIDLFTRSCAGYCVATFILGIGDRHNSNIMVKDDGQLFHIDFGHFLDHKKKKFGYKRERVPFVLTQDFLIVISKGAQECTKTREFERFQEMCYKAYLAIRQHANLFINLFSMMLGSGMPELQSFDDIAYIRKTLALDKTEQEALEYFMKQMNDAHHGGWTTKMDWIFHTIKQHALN

Compound	IC50 [1] [nM]	IC50 [2] [nM]	IC50 [3] [nM]
CCOc1ccc(-c2ccc3ncc4c(c3c2)n(-c2c(C)nn(CC(=O)N(C)C)c2C)c(=O)n4C)cn1 [Example 3.12, 2-{4-[8-(6-Ethoxy-pyridin-3-yl)-3-methyl-2-oxo-2,3-dihydro-imidazo[4,5-c]quinolin-1-yl]-3,5-dimethyl-pyrazol-1-yl}-N,N-dimethyl-acetamide]	57	721	128
Cc1cc(-n2c(=O)n(C)c3cnc4ccc(-c5ccc(C(F)(F)F)nc5)cc4c32)n(C)n1 [Example 8.2, 1-(2,5-Dimethyl-2H-pyrazol-3-yl)-3-methyl-8-(6-trifluoromethyl-pyridin-3-yl)-1,3-dihydro-imidazo[4,5-c]quinolin-2-one]	95	120	192
COc1ncc(-c2ccc3ncc4c(c3c2)n(-c2cn(C)nc2Cl)c(=O)n4C)cn1 [Example 17.3, 1-(3-Chloro-1-methyl-1H-pyrazol-4-yl)-8-(2-methoxy-pyrimidin-5-yl)-3-methyl-1,3-dihydro-imidazo[4,5-c]quinolin-2-one]	9	5	21
Cc1nn(C)cc1-n1c(=O)n(C)c2cnc3ccc(-c4ccc(N)nc4)cc3c21 [Example 23.1, 8-(6-Amino-pyridin-3-yl)-1-(1,3-dimethyl-1H-pyrazol-4-yl)-3-methyl-1,3-dihydro-imidazo[4,5-c]quinolin-2-one]	8	15	13
Cc1nn(C(C)C)cc1-n1c(=O)n(C)c2cnc3ccc(-c4ccc(N)nc4)cc3c21 [Example 23.2, 8-(6-Amino-pyridin-3-yl)-1-(1-isopropyl-3-methyl-1H-pyrazol-4-yl)-3-methyl-1,3-dihydro-imidazo[4,5-c]quinolin-2-one]	35	43	11
Cc1nn(C)cc1-n1c(=O)n(C)c2cnc3ccc(-c4cncc(N)c4)cc3c21 [Example 45.1, 8-(5-Amino-pyridin-3-yl)-1-(1,3-dimethyl-1H-pyrazol-4-yl)-3-methyl-1,3-dihydro-imidazo[4,5-c]quinolin-2-one]	14	19	60
CCOc1cncc(-c2ccc3ncc4c(c3c2)n(-c2c(C)cnn2C)c(=O)n4C)c1 [Example 56.5, 1-(2,4-Dimethyl-2H-pyrazol-3-yl)-8-(5-ethoxy-pyridin-3-yl)-3-methyl-1,3-dihydro-imidazo[4,5-c]quinolin-2-one]	155	196	846
Cc1nn(C)cc1-n1c(=O)n(C)c2cnc3ccc(-c4cncc(OCC5CC5)c4)cc3c21 [Example 61, 8-(5-Cyclopropylmethoxy-pyridin-3-yl)-1-(1,3-dimethyl-1H-pyrazol-4-yl)-3-methyl-1,3-dihydro-imidazo[4,5-c]quinolin-2-one]	12	17	13
Cc1nn(C)cc1-n1c(=O)n(C)c2cnc3ccc(-c4cnc5c(c4)nc(N(C)C)n5C)cc3c21 [Example 70, 8-(2-Dimethylamino-3-methyl-3H-imidazo[4,5-b]pyridin-6-yl)-1-(1,3-dimethyl-1H-pyrazol-4-yl)-3-methyl-1,3-dihydro-imidazo[4,5-c]quinolin-2-one]	375	163	
Cc1nn(C)c(C)c1-n1c(=O)n(C)c2cnc3ccc(-c4cnc(N)nc4)cc3c21 [Example 81.2, 8-(2-Amino-pyrimidin-5-yl)-3-methyl-1-(1,3,5-trimethyl-1H-pyrazol-4-yl)-1,3-dihydro-imidazo[4,5-c]quinolin-2-one]	51	30	220
CCOc1cc(-c2ccc3ncc4c(c3c2)n(-c2cn(C)nc2C)c(=O)n4C)cnc1C [Example 85.1, 1-(1,3-Dimethyl-1H-pyrazol-4-yl)-8-(5-ethoxy-6-methyl-pyridin-3-yl)-3-methyl-1,3-dihydro-imidazo[4,5-c]quinolin-2-one]	6	3	< 5
Cc1ncc(-c2ccc3ncc4c(c3c2)n(-c2cn(C)nc2Cl)c(=O)n4C)cc1N [Example 88.1, 8-(5-Amino-6-methyl-pyridin-3-yl)-1-(3-chloro-1-methyl-1H-pyrazol-4-yl)-3-methyl-1,3-dihydro-imidazo[4,5-c]quinolin-2-one]	11	4	< 5
CCOc1ccc(-c2ccc3ncc4c(c3c2)n(-c2cn(CCO)nc2C)c(=O)n4C)cn1 [Example 103.2, 8-(6-Ethoxy-pyridin-3-yl)-1-[1-(2-hydroxy-ethyl)-3-methyl-1H-pyrazol-4-yl]-3-methyl-1,3-dihydro-imidazo[4,5-c]quinolin-2-one]	42	71	7
COCCN(C)C(=O)Cn1cc(-n2c(=O)n(C)c3cnc4ccc(-c5ccccc5)cc4c32)c(C)n1 [Example 137, N-(2-Methoxy-ethyl)-N-methyl-2-[3-methyl-4-(3-methyl-2-oxo-8-phenyl-2,3-dihydro-imidazo[4,5-c]quinolin-1-yl)-pyrazol-1-yl]-acetamide]	161	922	324
CCOc1ccc(-c2ccc3ncc4c(c3c2)n(-c2cn(CC(=O)N3CCC3)nc2C)c(=O)n4C)cn1 [Example 138, 1-[1-(2-Azetidin-1-yl-2-oxo-ethyl)-3-methyl-1H-pyrazol-4-yl]-8-(6-ethoxy-pyridin-3-yl)-3-methyl-1,3-dihydro-imidazo[4,5-c]quinolin-2-one]	13	42	36
CCN(CC)C(=O)Cn1cc(-n2c(=O)n(C)c3cnc4ccc(-c5ccc(C)nc5)cc4c32)c(C)n1 [Example 139, N,N-Diethyl-2-{3-methyl-4-[3-methyl-8-(6-methyl-pyridin-3-yl)-2-oxo-2,3-dihydro-imidazo[4,5-c]quinolin-1-yl]-pyrazol-1-yl}-acetamide]	17	69	52
CNc1ncc(-c2ccc3ncc4c(c3c2)n(-c2cn(C)nc2C)c(=O)n4C)cc1C(F)(F)F [Example 144.3, 1-(1,3-Dimethyl-1H-pyrazol-4-yl)-3-methyl-8-(6-methylamino-5-trifluoromethyl-pyridin-3-yl)-1,3-dihydro-imidazo[4,5-c]quinolin-2-one]	10	9	< 5
CCn1cc(-n2c(=O)n(C)c3cnc4ccc(-c5cnc(NC)c(Cl)c5)cc4c32)c(C)n1 [Example 146.2, 8-(5-Chloro-6-methylamino-pyridin-3-yl)-1-(1-ethyl-3-methyl-1H-pyrazol-4-yl)-3-methyl-1,3-dihydro-imidazo[4,5-c]quinolin-2-one]	119	30	< 5
Cc1nn(C(C)C)cc1-n1c(=O)n(C)c2cnc3ccc(-c4cnc(F)c(N)c4)cc3c21 [Example 149.1, 8-(5-Amino-6-fluoro-pyridin-3-yl)-1-(1-isopropyl-3-methyl-1H-pyrazol-4-yl)-3-methyl-1,3-dihydro-imidazo[4,5-c]quinolin-2-one]	48	17	31
Cc1nn(C)cc1-n1c(=O)n(C)c2cnc3ccc(-c4cnc(F)c(N)c4)cc3c21 [Example 149.2, 8-(5-Amino-6-fluoro-pyridin-3-yl)-1-(1,3-dimethyl-1H-pyrazol-4-yl)-3-methyl-1,3-dihydro-imidazo[4,5-c]quinolin-2-one]	7	8	80
CCn1cc(-n2c(=O)n(C)c3cnc4ccc(-c5cnc(F)c(NC)c5)cc4c32)c(C)n1 [Example 150.1, 1-(1-Ethyl-3-methyl-1H-pyrazol-4-yl)-8-(6-fluoro-5-methylamino-pyridin-3-yl)-3-methyl-1,3-dihydro-imidazo[4,5-c]quinolin-2-one]	7	8	9
CCNc1cc(-c2ccc3ncc4c(c3c2)n(-c2c(C)nn(C)c2C)c(=O)n4C)cnc1Cl [Example 153.1, 8-(6-Chloro-5-ethylamino-pyridin-3-yl)-3-methyl-1-(1,3,5-trimethyl-1H-pyrazol-4-yl)-1,3-dihydro-imidazo[4,5-c]quinolin-2-one]	10	3	19
CCNc1cc(-c2ccc3ncc4c(c3c2)n(-c2cn(C(C)C)nc2C)c(=O)n4C)cnc1CO [Example 155.3, 8-(5-Ethylamino-6-hydroxymethyl-pyridin-3-yl)-1-(1-isopropyl-3-methyl-1H-pyrazol-4-yl)-3-methyl-1,3-dihydro-imidazo[4,5-c]quinolin-2-one]	30	10	< 5
CCNc1cc(-c2ccc3ncc4c(c3c2)n(-c2c(C)nn(C)c2C)c(=O)n4C)cnc1CO [Example 155.4, 8-(5-Ethylamino-6-hydroxymethyl-pyridin-3-yl)-3-methyl-1-(1,3,5-trimethyl-1H-pyrazol-4-yl)-1,3-dihydro-imidazo[4,5-c]quinolin-2-one]	125	11	88
